Experiments:
OR2K2 = molecular target: T1, OR2K2 (Homo sapiens, UniProt Q8NGT1); assay: siRNA knock-down of OR2K2 in HepG2 cells, fatty acid oxidation-related gene expression; type: cell-based
T1 construct: endogenous in cells; host or cells: HepG2
T1 sequence (Q8NGT1 1-316): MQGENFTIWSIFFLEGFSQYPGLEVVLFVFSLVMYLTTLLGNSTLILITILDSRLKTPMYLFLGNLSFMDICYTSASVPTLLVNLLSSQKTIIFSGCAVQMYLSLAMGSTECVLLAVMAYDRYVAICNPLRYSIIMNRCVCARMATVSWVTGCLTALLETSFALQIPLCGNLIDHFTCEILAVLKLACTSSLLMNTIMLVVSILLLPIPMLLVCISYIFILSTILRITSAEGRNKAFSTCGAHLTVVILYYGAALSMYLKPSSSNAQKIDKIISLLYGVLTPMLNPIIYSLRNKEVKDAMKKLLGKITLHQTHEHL
Description: The gene expression of OR1E1, OR1K1, OR2K2, OR2S2, OR13C5, and OR51E2, corresponding to the top 6 receptors among 10 human olfactory receptors selected to be expressed in both adipose tissue and liver tissue while interacting with azelaic acid, was knocked down with siRNA in human-derived liver cell and adipocyte lines, namely HepG2 cells and hAMSC cells, respectively. Here, siRNAs that were used were OR1E2 siRNA (sc-93932), OR1K2 (sc-92810), OR2K2 (sc-92852), OR2S2 (sc-92505), OR13C5 (sc-92899), and OR51E2 (sc-76265), purchased from Santa Cruz Biotechnology Inc. (Dallas, Tx USA).
After knock-down treatment, the cell lines were treated with azelaic acid, and triglyceride hydrolysis and fatty acid oxidation-related gene expression in HepG2 cells as a human-derived liver cell line and hAMSC cells as a human-derived adipocyte line were measured.

3T3-L1 adipocytes [1] = assay: Intracellular triglyceride concentration (TG assay kit) in 3T3-L1 adipocytes; type: cell-based, mouse
Experimental: In order to confirm whether or not azelaic acid induces triglyceride hydrolysis in adipocytes by activating a cAMP-PKA-HSL signaling pathway, the adipocytes were directly treated with azelaic acid, and concentrations of intracellular lipids were measured. […] Then, a concentration of triglycerides was measured using a TG assay kit (BioVision, California, U.S.) and a concentration of cholesterol was measured using an Amplex Red cholesterol assay kit (Invitrogen, California, U.S.).

3T3-L1 adipocytes [2] = assay: Intracellular calcium assay (Fluo-4 Direct) in 3T3-L1 adipocytes; type: cell-based, mouse
Experimental: Therefore, changes in concentrations of cAMP, IP-one (metabolite of IP3), and calcium, which are second messengers by azelaic acid corresponding to the Olfr544 ligand, in 3T3-L1 adipocytes were measured. Since IP3 has low stability to thereby be easily decomposed to IP-one, an amount of intracellular IP-One (metabolite of IP3) was quantified instead of IP3. The concentration of intracellular calcium was measured using a Fluo-4 Direct™ Calcium Assay Kit (Invitrogen, California, U.S.) containing a fluorescent dye for labeling calcium ions. The cultured 3T3-L1 adipocytes were obtained and subjected to centrifugation, and then only pellets were diluted in a Fluo-4 Direct™ calcium assay buffer solution contained in the kit at a concentration of 2.5×10^6 cells/mL. After the resultant was seeded in a 96-well plate and cultured at 37° C. under 5% CO2 conditions for 60 minutes, 50 μL of a 2×Fluo-4 Direct™ calcium reagent loading solution was seeded in the 96-well plate and cultured at 37° C. under 5% CO2 conditions for 30 minutes. Then, fluorescence was measured at excitation and emission wavelengths of 494 nm and 516 nm.

HepG2 cells = assay: qPCR of anti-obesity gene in HepG2 cells, with OR2K2 knock-down; type: cell-based, human
Experimental: In-vitro equivalence confirmation: HepG2 cells, which are a human liver tissue cell line, and hAMSC cells, which are a human adipocyte line, were treated with azelaic acid and the anti-obesity gene was measured through a qPCR method.

expression of fatty acid oxidation-related genes (PPARa, CTP1, Acox2) upon treatment with azelaic acid (OR2K2; HepG2 cells during knock-down of OR2K2): did not change
expression of fatty acid oxidation-related genes (PPARa, CTP1, Acox2), knocked-down group compared to control group (OR2K2; HepG2 cells, OR2K2 knock-down, upon treatment with azelaic acid): statistically significantly decreased
Structure (SMILES): O=C(O)CCCCCCCC(=O)O [azelaic acid, nonanedioic acid]
concentration of intracellular triglycerides decreased as compared to a control (3T3-L1 adipocytes [1]; 3T3-L1 adipocytes, 50 μM azelaic acid, 2 hours): 61.5%
concentration of triglycerides in the 3T3-L1 adipocytes (3T3-L1 adipocytes [1]; azelaic acid 25 or 50 μM): significantly and concentration-dependently decreased
concentration of intracellular calcium (3T3-L1 adipocytes [2]): did not affect
effect on gene expression when the OR2K2 gene was knocked down (HepG2 cells; human liver tissue cell line (HepG2)): disappear
fatty acid oxidation gene expression (qPCR) (HepG2 cells; liver tissue cells (HepG2) treated with azelaic acid): increased

Source: patent US20220249415A1, “COMPOSITION OF AZELAIC ACID HAVING ADIPOSE TRIGLYCERIDE HYDROLYSIS EFFECT” (Korea University Research and Business Foundation, priority 2018, published 2022)
